Series [1] concerns Aspergillus fumigatus FD050. The series can be described thus: Antifungal activity, microbroth dilution in YNBD medium, Aspergillus fumigatus FD050. The format is cell-based. The note with it: 1×10^4 cfu/100 μl/well, 37° C., 22 hours, 0.5% glucose-containing YNBD, microscopical observation. How it is done: (§1) The antifungal activity of WF16616 substnace was measured in a 0.5% glucose-containing yeast nitrogen base (YNBD) medium by a microbroth dilution analysis method using a 96-well microtiter plate. This substance was dissolved in methanol, and was diluted to twice in sequence in the microtiter plate using the YNBD medium. The test microorganism was inoculated at a concentration of 1×10^4 cfu/100 μl/well. Candida albicans and Aspergillus fumigatus were incubated in the above-mentioned plate at 37° C. for 22 hours, and Cryptococcus neoformans at 30° C. for 48 hours, respectively. Then, MIC was measured through microscopical observation.

A further series concerns ICR female mice. The experiment in a line: Toxicity test, intraperitoneal injection in mice. Type of series: in vivo. The note with it: 5 mg/kg intraperitoneally once a day for three days. The method, then: WF16616 substance was intraperitoneally injected into each of five 5-week-old ICR female mice at a dose of 5 mg/kg once a day for three days.
The next series deals with Candida albicans No. 7. The experiment in a line: Antifungal activity, microbroth dilution in YNBD medium, Candida albicans No. 7. Type of series: cell-based. The note with it: 1×10^4 cfu/100 μl/well, 37° C., 22 hours, 0.5% glucose-containing YNBD, microscopical observation. The method, then: as §1
Series [2] relates to Cryptococcus neoformans YC203. The experiment in a line: Antifungal activity, microbroth dilution in YNBD medium, Cryptococcus neoformans YC203. Type of series: cell-based. The following applies: 1×10^4 cfu/100 μl/well, 30° C., 48 hours, 0.5% glucose-containing YNBD, microscopical observation. How it is done: as §1
Another series concerns Candida albicans FP633. The experiment in a line: Antifungal activity, microbroth dilution in YNBD medium, Candida albicans FP633. Type of series: cell-based. The following applies: 1×10^4 cfu/100 μl/well, 37° C., 22 hours, 0.5% glucose-containing YNBD, microscopical observation. The method, then: as §1

The structures appear in SMILES notation. Values after ≈ are worked out from the molar mass of the structure shown.

With `CCC(C)CC(C)CCCCCCCCC(=O)NC1CC(O)C(O)NC(=O)C2C(O)C(C)CN2C(=O)C(C(O)CC(N)=O)NC(=O)C(C(O)C(O)c2ccc(O)c(OS(=O)(=O)O)c2)NC(=O)C2CC(O)CN2C(=O)C(C(C)O)NC1=O` (stereo not drawn) [WF16616 substance], the MIC in series [1] is 0.16 µg/mL (≈ 0.136 µM); with Candida albicans No. 7 it was 0.78 µg/mL (≈ 0.664 µM); in series [2] it was over 50 µg/mL; against Candida albicans FP633 it was 0.1 µg/mL (≈ 0.0851 µM). For the same compound, the dead mice result in the series on ICR female mice (five 5-week-old ICR female mice) was “none of the mice were dead”. Also, the “increase in the weight of mice” value with ICR female mice (versus unadministered mice) is “quite the same as that in the weight of unadministered mice”.

For the origin of these results see patent US5854276A, “Substance WF16616, process for production thereof, and use thereof” (Fujisawa Pharmaceutical Co., Ltd., priority 1995, dated 1998).
